Assay results: PMC8408929, “Influence of osmolality on gastrointestinal fluid volume and drug absorption: potential impact on oral salt supplementation” (Journal of Pharmaceutical Health Care and Sciences, 2021)

What was measured:
intestine = test system: intestine; parameters: method as in PMID 28450238; settings: administered in purified water vs isosmotic solution; cited from earlier work
[1] = parameters: method as in not given; settings: low-permeability drugs; ref not given; cited from earlier work
[2] = test system: rat intestine (jejunum, ileum and colon); assay: in situ rat intestinal closed loop method; settings: 30 min
Description: The in situ rat intestinal closed loop method was carried out as described previously. Male Wistar rats (7–8 weeks old; 250 ± 20 g body weight) were fasted overnight and anesthetized by intraperitoneal injection of a triple anesthetic combination (medetomidine, midazolam and butorphanol). The abdominal cavity was opened and an intestinal loop (jejunum, 10 cm; ileum, 10 cm; colon, 7 cm) was made by cannulation into both ends of the jejunum, ileum and colon with silicone tubing (i.d., 3 mm). The intestinal contents were washed out through the cannulas with saline. […] One mL of test compound solution (10 μM) was introduced into the intestinal loop and both ends of the loop were ligated. At the designated times (30 min), test compound solution in the loop was collected by flushing with air (for measuring the luminal concentration of test compound, Cout), and then made up to 10 mL with buffer solution (for measuring the amount of test compound, Xout). The volume of luminal water (mL) in each segment of intestine was calculated using the following equation: 1 Vwater=Xout/Cout where Vwater (mL) is the water volume in each segment of intestine, Cout is the luminal concentration of test compound (μM), and Xout is the amount of test compound (μmol). The fraction absorbed of test compound was calculated from the remaining amount of test compound in each intestinal loop. Final results were normalized to the surface area calculated from the radius and length of each segment of intestine. The radii of the small and large intestines reported by Fagerholm et al. were used (0.178 cm and 0.252 cm, respectively).
Concentrations of FD-4 were measured with a microplate fluorescence reader (VarioskanTM Flash 2.4; Thermo Fisher Scientific Inc., Kanagawa, Japan) at excitation/emission wavelengths of 492/515 nm.
An Agilent Eclitse plus (C18, 50 × 2.1 mm, 5 μm) was used as the analytical column. […] Analyst software version 1.4.2 (AB SCIEX) was used for data manipulation.

In the case of Cc1cc(=O)n(-c2ccccc2)n1C [antipyrine], the “fraction absorbed, purified water compared with isosmotic solution” value (intestine) is listed as “no significant difference”.
In the case of CC(C)NCC(O)COc1ccc(CC(N)=O)cc1 (stereo not shown) [atenolol], the “fraction absorbed, purified water compared with isosmotic solution” value (intestine) is listed as “significantly greater”.
In the case of NS(=O)(=O)c1cc(C(=O)O)c(NCc2ccco2)cc1Cl [furosemide], the “BCS Class” value [1] is given as “Class IV”.
For Cc1ccccc1C(=O)Nc1ccc(C(=O)N2CCCC(O)c3cc(Cl)ccc32)c(C)c1 (stereo not shown) [tolvaptan], the “BCS Class” value [1] is given as “Class IV”.
For “fluorescein isothiocyanate-dextran 4000 [FD-4]”, the luminal concentration ([2]; colon, 10 μM dosed in hyperosmotic solution (10% NaCl)) was 6.25 ± 0.15 µM, the luminal concentration ([2]; colon, 10 μM dosed in purified water) was 27.4 ± 2.0 µM and the luminal concentration ([2]; ileum, 10 μM dosed in hyperosmotic solution (10% NaCl)) was 6.47 ± 0.68 µM. It also gave a luminal concentration ([2]; ileum, 10 μM dosed in purified water) of 13.2 ± 0.7 µM, a luminal concentration ([2]; jejunum, 10 μM dosed in hyperosmotic solution (10% NaCl)) of 5.30 ± 0.31 µM and a luminal concentration ([2]; jejunum, 10 μM dosed in purified water) of 13.7 ± 0.8 µM.
